≈ marks a conversion by molar mass, not a printed value. Where a name gives a salt, the structure may show the parent alone. Read-outs that look alike come from different tables or passages of the source.
Columns and labels:
Solubility determination = format: physicochemical
[1] = system: Rats model of deep vein thrombosis; test: Rat model of deep vein thrombosis (thrombus weight); format: in vivo, SD rats; conditions: for Thrombosis inhibition rate (%) / Thrombus weight: oral gavage
Description: Experimental animals: SD rats (body weight 220 to 250 g, sex: male)
The thrombus was removed and weighed.

[2] = Protocol: Experimental animals: SD rats (body weight 200 to 300 g, sex: half of male and half of female)
The doses of 5, 10 and 20 mg/kg were administered by gavage, and blood was collected from the jugular vein at 5 min, 10 min, 20 min, 30 min, 1 h, 2 h, 4 h, 6 h, 8 h, 12 h and 24 h after the administration of the drug, processed, and analyzed for blood drug level by LC-MS/MS.
Data were processed using Phoenix WinNonlin 6.4 non-compartmental model to calculate the pharmacokinetic parameters of rats after drug administration, including t1/2, AUC0-t, AUC0-∞, Cl/F or Clss/F or Cl, Vz/F or Vss, MRT, Cmax, C5min, Tmax, and Cmin, Cavg, and AUC0-τ for multiple administrations to reach steady state, etc.

[3] = Blood drug level in the rat deep vein thrombosis model
Protocol: Preparation of solution: An appropriate amount of Form I was weighed, dissolved in a vehicle (0.5% (W/V) Natrosol™ 250 HX solution containing 0.1% (W/V) L(+)-tartaric acid) to formulate into the required concentration and then stirred uniformly, so that the drug was administered according to the predetermined dose.
Procedure: Rats were acclimatized for 3 days and randomly divided into three groups: model group, positive control group/subject group and bridging group, with 8 to 10 rats in each group. […] Rats in each group were anesthetized with urethane (20%, 5 mL/kg) via intraperitoneal injection. The abdominal cavity was exposed, the vena cava was bluntly separated, and two surgical sutures of 8 to 10 cm in length were placed under the blood vessels, both 1 cm apart. When the modeling time of each group was reached, rabbit thromboplastin (0.02 mg/kg) was injected into the left femoral vein, and the two sutures were knotted 10 s later, and the knotted portion of the suture was cut with ophthalmic scissors after 1 h. The thrombus was removed and weighed.

[4] = Accelerated stability test at 25 ± 2 °C, 60 ± 5% humidity; format: physicochemical
Protocol: The accelerated stability test data of the Form I at T = 25 ± 2 °C, 60 ± 5% humidity are as follows: […]

[5] = Moisture adsorption / hygroscopicity (DVS); format: physicochemical

## CCCCCCOC(=O)NC(=N)c1ccc(CNC(=O)[C@@H]2CCCN2C(=O)[C@@H](CC(C)C)NCC(=O)OCC)cc1 [dihydrochloride]
Solubility determination; water, result in words
  aqueous solubility: excellent aqueous solubility

## CCCCCCOC(=O)NC(=N)c1ccc(CNC(=O)[C@@H]2CCCN2C(=O)[C@@H](CC(C)C)NCC(=O)OCC)cc1 [Form I]
[1]; 2.5 mg/kg
  Thrombosis inhibition rate (%): 27.0%
  Thrombus weight: 51.9 ± 8.3 mg
[1]; 5 mg/kg
  Thrombosis inhibition rate (%): 54.7%
  Thrombus weight: 32.1 ± 5.7 mg
[1]; 10 mg/kg
  Thrombus weight: 21.3 ± 5.1 mg
[1]; 20 mg/kg
  Thrombosis inhibition rate (%): 79.7%
  Thrombus weight: 14.4 ± 3.6 mg
[1]; at the same dose
  antithrombotic efficacy compared with dabigatran etexilate: basically equivalent
Solubility determination; AC (Acetic acid)
  Solubility: >250 mg/mL
Solubility determination; ACN
  Solubility: >250 mg/mL
Solubility determination; DMSO
  Solubility: >250 mg/mL
Solubility determination; Diox
  Solubility: ~125 mg/mL (≈ 218 mM)
Solubility determination; EA
  Solubility: <0.3 mg/mL
Solubility determination; EtOH
  Solubility: >250 mg/mL
Solubility determination; Hept
  Solubility: <0.3 mg/mL
Solubility determination; IPA
  Solubility: ~167 mg/mL (≈ 291 mM)
Solubility determination; MEK
  Solubility: ~1.6 mg/mL (≈ 2.79 mM)
Solubility determination; MTBE
  Solubility: <0.3 mg/mL
Solubility determination; NBA
  Solubility: ~167 mg/mL (≈ 291 mM)
Solubility determination; THF
  Solubility: ~11.1 mg/mL (≈ 19.3 mM)
Solubility determination; Tol
  Solubility: <0.3 mg/mL
Solubility determination; Water
  Solubility: >250 mg/mL
Solubility determination; acetonitrile and dichloromethane
  Solubility: readily soluble
Solubility determination; buffer solutions with different pH values (1.2 to 13.0)
  Solubility: Highly soluble
Solubility determination; n-heptane and N, N-diisopropyl ethylamine
  Solubility: almost insoluble or insoluble
[2]; gavage 5 mg/kg, Female
  AUC0-t (h·ng/mL): 850+226 h·ng/mL
  AUC0-∞: 854 ± 224 ng·h/mL
  Cl/F: 104 ± 33 mL/min/kg
  Cmax: 522 ± 170 ng/mL
  MRT0-t: 1.6 ± 0.34 h
  MRT0-∞ (h): 1.7+0.38 h
  Tmax: 0.59 ± 0.29 h
  V2/F: 13.9 ± 6.75 L/kg
  t1/2: 1.5 ± 0.26 h
[2]; gavage 5 mg/kg, Male
  AUC0-t: 604 ± 182 ng·h/mL
  AUC0-∞: 606 ± 181 ng·h/mL
  Cl/F: 147 ± 41.7 mL/min/kg
  Cmax: 344 ± 163 ng/mL
  MRT0-t: 1.6 ± 0.20 h
  MRT0-∞: 1.7 ± 0.21 h
  Tmax: 0.66 ± 0.23 h
  V2/F: 18.1 ± 6.08 L/kg
  t1/2: 1.4 ± 0.32 h
[2]; gavage 5 mg/kg, Total
  AUC0-t: 727 ± 231 ng·h/mL
  AUC0-∞: 730 ± 231 ng·h/mL
  Cl/F: 126 ± 41.7 mL/min/kg
  Cmax: 433 ± 181 ng/mL
  MRT0-t: 1.6 ± 0.26 h
  MRT0-∞: 1.7 ± 0.28 h
  Tmax: 0.62 ± 0.24 h
  V2/F: 16.0 ± 6.37 L/kg
  t1/2: 1.5 ± 0.27 h
[2]; gavage 10 mg/kg, Female
  AUC0-t: 2060 ± 783 ng·h/mL
  AUC0-∞: 1830 ng·h/mL
  Cl/F: 92.3 mL/min/kg
  Cmax: 1120 ± 385 ng/mL
  MRT0-t: 1.6 ± 0.27 h
  MRT0-∞: 1.6 h
  Tmax: 0.75 ± 0.29 h
  V2/F: 20.1 L/kg
  t1/2: 2.6 h
[2]; gavage 10 mg/kg, Male
  AUC0-t: 1460 ± 324 ng·h/mL
  AUC0-∞: 1460 ± 324 ng·h/mL
  Cl/F: 118 ± 26.5 mL/min/kg
  Cmax: 934 ± 299 ng/mL
  MRT0-t: 1.6 ± 0.24 h
  MRT0-∞: 1.7 ± 0.20 h
  Tmax: 0.63 ± 0.25 h
  V2/F: 46.9 ± 24.6 L/kg
  t1/2: 4.5 ± 1.8 h
[2]; gavage 10 mg/kg, Total
  AUC0-t: 1760 ± 642 ng·h/mL
  AUC0-∞: 1590 ± 346 ng·h/mL
  Cl/F: 110 ± 25.5 mL/min/kg
  Cmax: 1030 ± 335 ng/mL
  MRT0-t: 1.6 ± 0.24 h
  MRT0-∞: 1.7 ± 0.26 h
  Tmax: 0.69 ± 0.26 h
  V2/F: 38.0 ± 23.6 L/kg
  t1/2: 3.9 ± 1.8 h
[2]; gavage 20 mg/kg, Female
  AUC0-t: 3840 ± 446 ng·h/mL
  AUC0-∞ (h·ng/mL): 3850+446 h·ng/mL
  Cl/F: 87.5 ± 10.2 mL/min/kg
  Cmax: 2170 ± 380 ng/mL
  MRT0-t (h): 1.7+0.19 h
  MRT0-∞: 1.8 ± 0.18 h
  Tmax: 0.50 ± 0.0 h
  V2/F: 30.8 ± 5.67 L/kg
  t1/2: 4.0 ± 0.35 h
[2]; gavage 20 mg/kg, Male
  AUC0-t (h·ng/mL): 4650+2440 h·ng/mL
  AUC0-∞: 4660 ± 2440 ng·h/mL
  Cl/F: 83 ± 29.8 mL/min/kg
  Cmax: 2230 ± 531 ng/mL
  MRT0-t: 1.8 ± 0.33 h
  MRT0-∞: 1.8 ± 0.32 h
  Tmax: 0.88 ± 0.25 h
  V2/F: 26.6 ± 17.0 L/kg
  t1/2: 3.7 ± 1.7 h
[2]; gavage 20 mg/kg, Total
  AUC0-t: 4250 ± 1680 ng·h/mL
  AUC0-∞: 4250 ± 1680 ng·h/mL
  Cl/F: 85.3 ± 20.8 mL/min/kg
  Cmax: 2200 ± 429 ng/mL
  MRT0-t: 1.8 ± 0.25 h
  MRT0-∞: 1.8 ± 0.25 h
  Tmax: 0.69 ± 0.26 h
  V2/F: 28.7 ± 11.9 L/kg
  t1/2: 3.9 ± 1.2 h
[3]; level of compound V after oral 2.5 mg/kg Form I, 2.5 mg/kg
  Blood drug level: 190.1 ng/mL
[3]; level of compound V after oral 2.5 mg/kg Form I, listed as Crystal form I, 2.5 mg/kg
  Blood drug level: 190.1 ± 62.9 ng/mL
[3]; level of compound V after oral 5 mg/kg Form I, 5 mg/kg
  Blood drug level: 181.3 ng/mL
[3]; level of compound V after oral 10 mg/kg Form I, 10 mg/kg
  Blood drug level: 341.9 ng/mL
[3]; level of compound V after oral 10 mg/kg Form I, listed as Crystal form I, 10 mg/kg
  Blood drug level: 341.9 ± 46.4 ng/mL
[3]; level of compound V after oral 20 mg/kg Form I, 20 mg/kg
  Blood drug level: 609.7 ng/mL
[3]; level of compound V after oral 20 mg/kg Form I, listed as Crystal form I, 20 mg/kg
  Blood drug level: 609.7 ± 174.0 ng/mL
[4]; 0 month
  Content (HPLC): 99.6%
  Hydrolyzed impurities: 0.19%
  Moisture: 0.4%
  Other individual impurities: <RL(0.05%)
  Total impurities: 0.42%
[4]; 1 month
  Content (HPLC): 99.3%
  Hydrolyzed impurities: 0.27%
  Moisture: 0.5%
  Other individual impurities: <RL(0.05%)
  Total impurities: 0.54%
[4]; 2 months
  Content (HPLC): 100.3%
  Hydrolyzed impurities: 0.28%
  Moisture: 0.3%
  Other individual impurities: <RL(0.05%)
  Total impurities: 0.56%
[4]; 3 months
  Content (HPLC): 100.3%
  Hydrolyzed impurities: 0.45%
  Moisture: 0.4%
  Other individual impurities: <RL(0.05%)
  Total impurities: 0.72%
[4]; 6 months
  Content (HPLC): 99.6%
  Hydrolyzed impurities: 0.51%
  Moisture: 0.3%
  Other individual impurities: <RL(0.05%)
  Total impurities: 1.02%
[5]; 80% RH
  water absorption (DVS): 28.8%
[5]; 90% humidity
  water absorption (DVS): 49.9%
[5]; after DVS test
  solid form after DVS test: converted to amorphous form
[5]; high humidity
  behaviour of the sample at high humidity (DVS): undergoes deliquescence
[5]; result in words
  Hygroscopicity: Hygroscopic

From EP4667482A1, “SALT OF DIPEPTIDE COMPOUND, PREPARATION METHOD THEREFOR, AND USE THEREOF” (Zhejiang Huahai Pharmaceutical Co., Ltd., priority 2023, dated 2024)
